Test results from patent publication US4900673A, “Mutant human angiogenin (angiogenesis factor with superior angiogenin activity) genes therefor and methods of expression” (President and Fellows of Harvard College, priority 1988, dated 1990).

Columns and labels:
[1] = biological target: T1, bovine RNase A (Bos taurus, UniProt P61823); details: measured under conditions employed here (Harper et al., Biochemistry 27: 219-226); cited from earlier work
T1 sequence (P61823 27-150): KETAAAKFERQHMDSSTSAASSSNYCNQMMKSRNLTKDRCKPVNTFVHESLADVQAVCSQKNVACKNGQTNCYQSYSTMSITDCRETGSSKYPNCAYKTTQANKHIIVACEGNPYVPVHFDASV

[2] = biological target: T2, human angiogenin variant D116N-angiogenin (Asn-116) (Homo sapiens, UniProt P03950, D140N); experiment: Cleavage of dinucleoside phosphates (HPLC method); format: biochemical; details: 30 mM Mes, pH 6.0, 30 mM NaCl, 0.1 mM dinucleoside phosphate, 37° C.
T2 construct: made in house; host or cells: E. coli W3110
T2 sequence (P03950 25-147 D140N): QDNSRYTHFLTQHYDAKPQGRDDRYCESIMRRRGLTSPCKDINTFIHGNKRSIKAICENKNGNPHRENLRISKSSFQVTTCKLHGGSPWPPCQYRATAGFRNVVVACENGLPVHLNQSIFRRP
Experimental: Activity toward the RNase substrates cytidyl (3'→5') adenosine (CpA) and uridyl (3'→5') adenosine (UpA) was determined using a sensitive HPLC method described previously (Shapiro et al., Biochemistry 25: 3527-3532 and 7255-7264 1986). Reaction mixture containing 30 mM 2-(N-morpholino) ethane sulfonic acid (Mes), pH 6.0, 30 mM NaCl and 0.1 mM dinucleoside phosphate were incubated with angiogenin (0.7-3.0 μM) at 37° C. Aliquots (15-20 μl) were removed at various times and injected onto an HPLC column (radial Pak C18; Waters Associates) equilibrated with 10 mM potassium phosphate, pH 7.0. Elution of reactants and products was accomplished using a linear gradient of methanol in 100 mM potassium phosphate pH 7.0 at a flow rate of 0.8 ml/minutes. Elution was monitored at 254 nm and the integrated areas of reactants and products used to calculate kcat /Km using the expression kcat /Km =1n {[S] o /[S]t }/[E]t.

Row | kcat /Km [2] | Structure (SMILES) | kcat /Km [1]
1 | – | Nc1ccn([C@@H]2O[C@H](CO)[C@@H](OP(=O)(O)OC[C@H]3O[C@@H](n4cnc5c(N)ncnc54)[C@H](O)[C@@H]3O)[C@H]2O)c(=O)n1 [CpA, cytidyl (3'→5') adenosine] | 6e+06 M⁻¹ s⁻¹
2 | 0.5 M^-1 s^-l | Nc1ncnc2c1ncn2[C@@H]1O[C@H](COP(=O)(O)O[C@H]2[C@@H](O)[C@H](n3ccc(=O)[nH]c3=O)O[C@@H]2CO)[C@@H](O)[C@H]1O [UpA, uridyl (3'→5') adenosine] | 4e+06 M⁻¹ s⁻¹
